Assay results published in patent EP4656640A1, “IRAK4 DEGRADER AND USE THEREOF” (Shanghai Qilu Pharmaceutical Research and Development …, priority 2023, dated 2024).
Like-named read-outs stand apart in the source and are kept apart here.

What was measured:
IRAK4 [1] = target: T1, IRAK4 (Mus musculus, UniProt Q8R4K2); experiment: In vivo degradation of IRAK4 in mouse spleen, IL-33 model (LC-MS); parameters: species or system C57BL/6J mice; conditions: Example 22 at 50 mpk, comparable drug concentrations in the spleen, FIG. 2
T1 sequence (Q8R4K2 1-459): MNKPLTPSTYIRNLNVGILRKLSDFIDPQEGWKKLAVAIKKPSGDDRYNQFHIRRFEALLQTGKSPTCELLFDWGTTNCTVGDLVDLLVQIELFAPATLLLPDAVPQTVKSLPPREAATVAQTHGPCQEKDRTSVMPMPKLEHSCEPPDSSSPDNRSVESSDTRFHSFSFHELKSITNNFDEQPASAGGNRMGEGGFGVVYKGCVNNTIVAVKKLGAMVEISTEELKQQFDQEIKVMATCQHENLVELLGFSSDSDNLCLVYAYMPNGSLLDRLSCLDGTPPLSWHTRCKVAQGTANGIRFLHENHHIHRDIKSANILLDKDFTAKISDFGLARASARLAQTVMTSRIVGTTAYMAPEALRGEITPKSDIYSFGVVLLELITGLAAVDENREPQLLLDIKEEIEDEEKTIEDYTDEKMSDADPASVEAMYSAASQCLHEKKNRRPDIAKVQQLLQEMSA

IL-6 secretion = experiment: Inhibition of induced IL-6 secretion in human PBMCs (CBA); type: cell-based; conditions: PBMC
Procedure: (§1) The effect of PROTAC small molecules on inflammatory factors in PBMCs downstream of IRAK4 induced by TLR and IL-1 was detected based on the CBA (cytometric bead array) method.
(§2) Step 2: The density of PBMCs was adjusted to 1 E6/mL, and 150 µL of PBMCs in 1640 complete medium were seeded into a 96-well plate, followed by incubation at 37°C for 1 hour.
(§3) Step 3: 50 µL of serially diluted small molecule (working concentration: 10000 nM, 1:3 dilution) drugs were inoculated into the plate in a 37°C incubator for 8 hours.
(§4) Step 4: 10 µL of stimulants were added respectively, with final concentrations of 100 ng/mL for LPS, 1 µg/mL for R848, and 100 ng/mL for IL-1β.
(§5) Step 5: CBA assay. The concentrations of IL-6 and TNF-α in the cell culture supernatant were determined using Hu IL-6 CBA Flex Set A7 and Hu TNF- CBA Flex Set D9.
(§6) Step 6: Standard samples were prepared: 2500 pg/mL, 1250 pg/mL,...0. A 1:2 serial dilution was performed to obtain 10 concentrations.
(§7) Step 7: The mixed capture beads were resuspended in capture bead diluent (1:50), and cell culture supernatant (50 µL) was added, followed by incubation at room temperature for 10 minutes.
(§8) Step 8: The detection reagent prepared with detection diluent was added, and the mixture was incubated in the dark at room temperature for 3 hours. At the end of incubation, the samples were washed once with wash buffer and resuspended for detection.
(§9) The concentrations of IL-6 and TNFα were calculated using the standard curve method. Data presentation and IC50 calculation were performed using Prism 8.0.2.

IRAK4 [2] = target: T2, IRAK4 (Homo sapiens, UniProt Q9NWZ3); type: cell-based; parameters: endogenous in cells; host or cells: OCI-LY3; conditions: read-out: OCI-LY3 DC50; OCI-LY3 cells
T2 sequence (Q9NWZ3 1-460): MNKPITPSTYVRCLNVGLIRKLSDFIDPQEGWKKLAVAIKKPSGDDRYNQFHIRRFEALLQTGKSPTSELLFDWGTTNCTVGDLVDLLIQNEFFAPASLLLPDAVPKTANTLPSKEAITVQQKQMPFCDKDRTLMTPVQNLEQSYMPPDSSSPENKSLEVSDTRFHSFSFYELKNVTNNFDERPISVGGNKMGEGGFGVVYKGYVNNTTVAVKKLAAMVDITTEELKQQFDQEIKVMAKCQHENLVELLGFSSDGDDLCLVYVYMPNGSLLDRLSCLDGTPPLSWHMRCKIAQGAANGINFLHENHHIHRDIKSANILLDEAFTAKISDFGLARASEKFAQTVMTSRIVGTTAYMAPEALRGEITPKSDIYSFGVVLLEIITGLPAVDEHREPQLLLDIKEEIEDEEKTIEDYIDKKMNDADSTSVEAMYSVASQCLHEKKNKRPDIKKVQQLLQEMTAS

TNFα secretion = experiment: Inhibition of induced TNFα secretion in human PBMCs (CBA); type: cell-based; conditions: PBMC
Procedure: as §1, §2, §3, §4, §5, §6, §7, §8, §9

inflammatory factors = experiment: Inflammatory factors in plasma and peritoneal lavage fluid, IL-33-induced acute inflammation in mice (ELISA); type: in vivo, C57BL/6J mice; conditions: FIG. 1
Procedure: IL-33, a member of the IL-1 cytokine family, is the ligand for IL-1 receptor-like 1 or ST2. […] The effect of the compounds on inflammation in the IL-1R signaling pathway was investigated using an acute inflammatory model in mice induced by intraperitoneal injection of IL-33.
Preparation of IL-33 inducer: The mouse recombinant IL-33 powder was prepared as a 1 µg/µL stock solution. When using, 40 µL of the 1 µg/µL IL-33 solution was added to 3960 µL of PBS, mixed well by inversion, to obtain 4 mL of IL-33 solution with a concentration of 1 µg/100 µL, which was prepared freshly before use.

[3] = Mouse pharmacokinetics, oral (Experiment 2); type: in vivo, C57BL/6 mice; conditions: mice, PO 100 mg/kg, free access to food, plasma
Procedure: Two male C57BL/6 mice were allowed free access to food and water. The dose for PO administration was 100 mg/kg, with an administration volume of 10 mL/kg.
After administration, blood samples (0.025 mL) were collected from the mice via venipuncture at 0.083, 0.25, 0.5, 1, 2, 4, 8, and 24 hours. The samples were placed in EDTA-K2 tubes and centrifuged at 2000 g for 5 minutes at 4°C. The plasma was separated and stored at -70°C.
• 1) 5 µL of plasma sample was added to 100 µL of acetonitrile for precipitation. After mixing, the mixture was centrifuged at 5800 rmp for 10 minutes. • 2) The processed supernatant solution was taken for LCMS/MS analysis to determine the concentration of the test compound.
• LC-MS/MS instrument: LCMS/MS-45 (Triple Quad 6500+) • Chromatographic column: Waters BEH C18 (2.1 × 50 mm, 1.7 µm) • Mobile phase: Solution A was H2O-0.025% FA-1 mM NH4OAc, and Solution B was MeOH-0.025% FA-1 mM NH4OAc. • Flow rate: 0.6 mL/min • Elution time: Gradient elution for 0-2.5 minutes.
The main pharmacokinetic parameters were calculated using WinNonlin 8.2. […] Table 7. Pharmacokinetic parameters of some compounds of the present disclosure administered orally to mice

[4] = IL-1β 100 ng/mL, read-out: IC50 of compounds against induced secretion, IL-6, IL-1β
[5] = LPS 100 ng/mL, read-out: IC50 of compounds against induced secretion, IL-6, LPS
[6] = R848 1 µg/mL, read-out: IC50 of compounds against induced secretion, IL-6, R848
[7] = IL-1β 100 ng/mL, read-out: IC50, TNFα secretion induced by IL-1β
[8] = LPS 100 ng/mL, read-out: IC50, TNFα secretion induced by LPS
[9] = R848 1 µg/mL, read-out: IC50, TNFα secretion induced by R848

SMILES	degradation effect of IRAK4 in mouse spleen compared with KT-474 at 150 mpk (IRAK4 [1])	IC50 (IL-6 secretion; [4])	IC50 (IL-6 secretion; [5])	IC50 (IL-6 secretion; [6])	DC50 (IRAK4 [2])	IC50 (TNFα secretion; [7])	IC50 (TNFα secretion; [8])	IC50 (TNFα secretion; [9])	anti-inflammatory effect compared with KT474 (inflammatory factors; at comparable drug concentrations in plasma)	inflammatory factors in mouse plasma and peritoneal lavage fluid (inflammatory factors; mice, PO 15, 50 and 150 mg/kg, IL-33 induction)	AUC(0-t) at 24 h [3]	Cmax [3]	Tmax [3]
Cn1c(=O)n(C2CCC(=O)NC2=O)c2cccc(C#CCCN3CCC4(CC3)CC(n3cc(NC(=O)c5cnn6ccc(N7C[C@H]8C[C@@H]7CO8)nc56)c(C(F)F)n3)C4)c21 (stereo partly shown) [Example 22]	2-3 times	1 nM	0.5 nM	0.16 nM	1.3 nM	0.16 nM	1.2 nM	1.4 nM	superior	concentration-dependent reduction	–	–	–
Cn1c(=O)n(C2CCC(=O)NC2=O)c2cccc(C#CCOC34CCC(CN5CCC6(CC5)CC(n5cc(NC(=O)c7cnn8ccc(N9C[C@H]%10C[C@@H]9CO%10)nc78)c(C(F)F)n5)C6)(CC3)CC4)c21 (stereo partly shown) [Example 52]	–	8.9 nM	8.4 nM	20.3 nM	–	13.9 nM	8.5 nM	21.5 nM	–	–	40100 ng·h/mL	2200 ng/mL	8 h
